# The supplement of paper PMC10949913
# Experiments:
# Assay in all cases: area under concentration-response curve (viability) (AUC (a.u.)); higher = less active
# Settings in all cases: 48 h
# CU-ACC1 = tested on: CU-ACC1
# In short: (§1)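 Three adrenocortical carcinoma cell lines were seeded at 500–1,000 cells/well in 5 µL medium in 1,536-well plates. 23 nL of each MIPE 5.0 library compound was added at 11 concentrations. After 48 h (per the protocol name), CellTiter-Glo was added for 15 minutes at room temperature and luminescence was read. Signals were normalised per plate to vehicle and empty-well controls. AC50 and area under the curve came from fitted concentration-response curves, keeping only inhibitory or non-responding curve classes.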
# CU-ACC2 = tested on: CU-ACC2
# In short: as §1
# NCI-H295R = tested on: NCI-H295R
# In short: as §1
Structure (SMILES),area under concentration-response curve (CU-ACC1),area under concentration-response curve (CU-ACC2),area under concentration-response curve (NCI-H295R)
CO[C@H]1/C=C/O[C@@]2(C)Oc3c(C)c(O)c4c(c3C2=O)C2=NC3(CCN(CC(C)C)CC3)NC2=C(NC(=O)/C(C)=C/C=C/[C@H](C)[C@H](O)[C@@H](C)[C@@H](O)[C@@H](C)[C@H](OC(C)=O)[C@@H]1C)C4=O,491,607,530
CC(C)(C)NCC(O)c1ccc(O)c(CO)c1 (configuration not stated),504,598,567
ClC1=CC=C2N/C3=N/C(=O)CN3CC2=C1Cl,519,626,542
O=C1NC(O)CCN1[C@@H]1O[C@H](CO)[C@@H](O)[C@H]1O (some centres not stated),539,646,585
Nc1nc(OC(c2ccc(-c3cccc(F)c3)cc2)C(F)(F)F)cc(-c2ccc(C[C@@H](N)C(=O)O)cc2)n1 (some centres not stated),464,488,449
CC1(C)CCC(=C(CN2CCN(CC2)C3=CC=C(C=C3)C(=O)N[S+]([O-])(=O)C4=CC(=C(N[C@H](CCN5CCOCC5)CSC6=CC=CC=C6)C=C4)[S+]([O-])(=O)C(F)(F)F)\C1)/C7=CC=C(Cl)C=C7,439,373,463
CC(NC1=CC=CC=C1)C\2=C\C(=C/N3C(=O)\C=C(/N=C23)N4CCOCC4)C (configuration not stated),414,647,583
CCCC1=NC(=C2[N]1NC(=N\C2=O)/C3=CC(=CC=C3OCC)[S+]([O-])(=O)N4CCN(CC)CC4)C,462,573,518
Cc1c(-c2ccc(-c3ccccc3F)cc2)nc2ccc(F)cc2c1C(=O)O,595,620,521
COC[C@@H](c1ccc(C(F)(F)F)cc1)N1CCN(C2(C)CCN(C(=O)c3c(C)ncnc3C)CC2)C[C@@H]1C,501,541,513
CC1(C)O[C@@H]2C[C@H]3[C@@H]4CCC/5=C/C(=O)/C=C\[C@]5(C)[C@@]4(F)[C@@H](O)C[C@]3(C)[C@@]2(O1)C(=O)CO,551,517,548
CC(C)[C@H](N)C(=O)OCCOC[N]1C=NC2=C1\N=C(N)/NC2=O,449,394,390
O=C(Cc1ccccc1)Nc1nnc(CCSCCc2nnc(NC(=O)Cc3ccccc3)s2)s1,509,532,507
Cc1nnc(C(C)C)n1C1CC2CCC(C1)N2CCC(NC(=O)C1CCC(F)(F)CC1)c1ccccc1 (configuration not stated),478,498,451
Nc1n[nH]c2nnc(-c3c(-c4ccccc4)nn4ccccc34)cc12,489,595,515
CCC(CCCC)COC(=O)C(\C#N)=C(\c1ccccc1)c2ccccc2 (configuration not stated),540,667,583
Cn1cnc(N)c2ncnc1-2,438,467,448
C[C@]1(C(=O)N(CCCC(=O)O)Cc2cccc(Cl)c2)CCN1C(=O)c1csc2ccccc12,490,584,532
C1Cc2[nH]nc(-c3nn[nH]n3)c2C1,544,624,514
Oc1ccc(C2CCN(c3ccnc4ccccc34)CC2)cc1O,497,549,523
CC1=C(C)C\2=C(S1)[N]3C(=NN=C3[C@H](CC(N)=O)\N=C2C4=CC=C(Cl)C=C4)C,516,538,452
CC(C(C)N1CC(=O)NC(=O)C1)N1CC(=O)NC(=O)C1 (configuration not stated),488,605,538

Structure (SMILES),area under concentration-response curve (CU-ACC1),area under concentration-response curve (CU-ACC2),area under concentration-response curve (NCI-H295R)
CCOc1cc(N)c(Cl)cc1C(=O)NCC1CN(Cc2ccc(F)cc2)CCO1 (configuration not stated),554,538,542
Cc1cccc(-c2[nH]c(CNc3ccccc3F)nc2-c2ccc3ncnn3c2)n1,483,510,463
O=C([O-])Cc1ccccc1Nc1c(Cl)cccc1Cl,536,645,585
CC(=O)N[C@H]1[C@H](O[C@@H]2c3ccc(c(Cl)c3)Oc3cc4cc(c3O[C@@H]3O[C@H](CO)[C@@H](O)[C@H](O)[C@H]3NC(=O)CCCCCCCC(C)C)Oc3ccc(cc3Cl)C[C@H]3NC(=O)[C@H](N)c5ccc(O)c(c5)Oc5cc(O)cc(c5)[C@H](NC3=O)C(=O)N[C@H]4C(=O)N[C@H]3C(=O)N[C@@H]2C(=O)N[C@@H](C(=O)O)c2cc(O)cc(O[C@H]4O[C@H](CO)[C@@H](O)[C@H](O)[C@@H]4O)c2-c2cc3ccc2O)O[C@H](CO)[C@@H](O)[C@@H]1O,492,593,551
C=C(C)[C@@H]1CC[C@]2(C(=O)O)CC[C@]3(C)[C@H](CC[C@@H]4[C@@]5(C)CC[C@H](O)C(C)(C)[C@@H]5CC[C@]43C)[C@@H]12,541,646,587
COc1cc(-c2cc(-c3ccc(N4CCNCC4)cc3)cnc2C)cc(OC)c1OC,548,585,556
CC(C)C[C@H](CN)CC(=O)O,474,595,545
C[S+](=O)([O-])c1ccc(Oc2cc(F)cc(C#N)c2)c2c1[C@H](O)C(F)(F)C2,571,645,603
COC1=CC=C(C=C1)/C2=C(O)/C(=O)C3=C(O)C=C(O)C(=C3O2)CC=C(C)C,415,388,416
CN1[C@@H]2CC(O)C[C@H]1[C@@H]1O[C@@H]12 (some centres not stated),460,560,496
CN(C)CC/C=C1/c2ccccc2COc2ccc(CC(=O)O)cc21,467,570,509
CC(=O)N1CCC[C@H]1C(=O)N[C@@H](Cc1c[nH]cn1)C(=O)N[C@@H](CO)C(=O)N[C@@H](CS)C(=O)N[C@@H](CC(N)=O)C(N)=O,382,527,498
CN(C)/N=N/c1nc[nH]c1C(N)=O,514,547,481
CN(C)CCOC(c1ccccc1)c1ccccc1,478,565,527
Cc1ccc(C(=O)Nc2ccc([S+](=O)([O-])O)c3cc([S+](=O)([O-])O)cc([S+](=O)([O-])O)c23)cc1NC(=O)c1cccc(NC(=O)Nc2cccc(C(=O)Nc3cc(C(=O)Nc4ccc([S+](=O)([O-])O)c5cc([S+](=O)([O-])O)cc([S+](=O)([O-])O)c45)ccc3C)c2)c1,420,488,488
CNC[C@H](O)c1ccc(O)c(O)c1,530,608,592
COC1=CC(=CC(=C1CN(C)C)OC)\C2=C\N(C)C(=O)C3=C2C=CN=C3,500,578,479
CC(C)NCC(O)COc1ccc(CCOCC2CC2)cc1 (configuration not stated),493,560,536
Nc1nc(Cl)nc2c1ncn2[C@H]1C[C@H](O)[C@@H](CO)O1,558,601,537
CCNC(=O)CCC/C=C\C[C@@H]1[C@@H](/C=C/C(O)CCc2ccccc2)[C@@H](O)C[C@@H]1O (some centres not stated),508,646,571
O=c1sn(-c2cccc3ccccc23)c(=O)n1Cc1ccccc1,462,501,433
COc1cc2c(cc1OC)CN(CCc1ccc(NC(=O)c3cccc4c(=O)c5cccc(OC)c5[nH]c34)cc1)CC2,575,621,567
